# Laboratory results published in patent US20030186948A1, “O-linked N-acetylglucosamine pathway in the pathogenesis of neurodegeneration and diabetes” (priority 2000, published 2003).
# Where a SMILES comes first, the peptide text is derived from it. [ ]: non-standard residue; d: D form. The star is where a group is joined. Nle = CCCC[C@H](N)C(=O)O; Cbz = O=C(OCc1ccccc1)*
# Experiments:
# [1] = tested on: p135 O-glycosylation in pancreatic islets; test: Pancreatic islet p135 O-glycosylation (RL2 immunoprecipitation and Western blot); type: cell-based, rat; settings: for inhibition of p135 O-glycosylation: comparison with NOC-15, FIG. 12
# Protocol: Rat pancreatic islets were isolated, counted into tubes and pre-incubated with 3 mM glucose. Following pre-incubation, islets were stimulated with 3 mM glucose, 5 mM STZ, 5 mM NOC-15, or 5 mM DPTA. NOC-15 ((Z)-1-[N-(3-Ammoniopropyl)-N-(n-propyl)amino]diazen-ium-1,2-diolate, also known as PAPA NONOate) is a structural analog of […] (FIG. 9). At the end of the experiment, O-glycosylated proteins were immunoprecipitated with RL2 antibody, which binds to O-linked N-acetylglucosamine. Immunoprecipitated proteins were run out on a 6.5% SDS-PAGE gel and the proteins were then transferred to a nitrocellulose blot. The blot was then probed with RL2 antibody, which was detected by the ECL method. The blot was exposed to X-ray film and the film was developed and photographed. […] The structure and action of NOC-15 can thus be used as a basis to synthesize drugs that can be used to prevent and/or treat diabetes.
# [2] = tested on: TGFα promoter β-gal reporter in pancreatic β-cells; test: TGFα-βgal reporter activity in islets after streptozotocin injection; type: in vivo, mouse; settings: TGFα-βgal reporter mice, dose that causes β-cell apoptosis
# Protocol: The TGFα promoter was placed in front of the β-galactosidase reporter gene and developed two lines of transgenic mice. The line with the best reporter activity was used in all subsequent experiments. Tissue expression of the reporter was detected as follows: tissues were quickly excised, cut into pieces, and fixed in 4% paraformaldehyde (made in PBS, pH 7.5) for 30 min at 4° C. Tissue sections were rinsed three times 10 min each in ice-cold PBS, immersed in freshly prepared staining solution [10 ml solution of PBS (pH 7.4) containing 2 mM MgCl2, 0.01% sodium deoxycholate, 0.02% NP40, 0.1% X-gal dissolved in dimethylformamide, 82.5 mg potassium ferricyanide, and 94.5 mg potassium ferrocyanide], and incubated overnight at 37° C. The reaction was stopped by rinsing the organs in PBS. Sampleswere stored in 70% ethanol at 4° C. […] For example, β-gal activity was detected in the pituitary and in some neurons, sites where native TGFα had been detected before. […] Of particular interest in this regard was the absence of staining in the exocrine and endocrine pancreas.
# Because p53 accumulates in the islet in response to STZ, and TGFα transcription is driven by p53, it is reasonable to examine the TGFα reporter mice for TGFα promoter activation in the islets. Mice were injected with streptozotocin at the dose that cause β-cell apoptosis. […]
# [3] = tested on: pancreatic islets; test: TUNEL assay and p53 staining of pancreatic slices from STZ-treated rats; type: in vivo, rat
# Protocol: The effect of streptozotocin on p53 accumulation in the islets was determined using immunohistochemistical analysis of pancreatic slices from rats treated for various times with STZ. […] This assay has been described thoroughly (Liu et al., 2000). The TUNEL positivity peaks at about 22-24 hours after the administration of STZ. When the tissue was stained with p53 antibodies, it was noted that p53 accumulation preceded the apoptosis. […] This corresponds with the observation the O-GlcNAc transferase is much more highly expressed in the endocrine pancreas. STZ also is toxic to the somatotropes in the pituitary where O-GlcNAc transferase is highly expressed. Thus, it is predicted there where O-GlcNAc transferase is abundant, STZ-sensitivity should be seen.
# [4] = molecular target: T1, brain proteasome LLVY chymotryptic activity (Rattus norvegicus, UniProt P28075); test: suc-LLVY-AMC cleavage in brain extract of streptozotocin-injected animals; type: in vivo
# T1 construct: Brain extract was prepared from animals injected with or without streptozotocin; from tissue; host or cells: brain extract
# T1 sequence (P28075 60-263): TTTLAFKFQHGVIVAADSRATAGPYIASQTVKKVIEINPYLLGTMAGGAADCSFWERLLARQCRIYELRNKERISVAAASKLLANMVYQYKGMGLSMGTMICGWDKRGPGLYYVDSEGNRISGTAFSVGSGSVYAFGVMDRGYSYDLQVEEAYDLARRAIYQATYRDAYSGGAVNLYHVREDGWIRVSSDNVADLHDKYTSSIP
# Protocol: To determine whether STZ-injected animals display a n alteration in proteasomal function, the cleavage of the peptide LLVY was examined following streptozotocin treatment. Brain extract was prepared from animals injected with or without streptozotocin, and suc-LLVY-AMC was added to the extract.
# [5] = tested on: hippocampal neurons (CA1 region); test: RL2 immunostaining of brain O-GlcNAc after cerebroventricular streptozotocin; type: in vivo, rat; settings: 6 hours after injection
# Protocol: To determine if streptozotocin causes hippocampal neuron O-GlcNAc accumulation, the drug was delivered stereotactically to the cerebroventricles of a rat brain. The brain tissues were then stained for O-GlcNAc content using the O-GlcNAc-specific monoclonal antibody, RL2. Staining of rat tissue by this mouse antibody is easier because detection is not hampered by endogenous mouse IgG. Staining is blocked by preincubation of RL2 with GlcNAc, but not GalNAc or glucosamine (needs acetylation) or other sugars. The bound RL2 can be detected by fluorescent-tagged antimouse IgG antibody. […] At 6 hours post-injection, the animals were sacrificed and brain O-GlcNAc content was detected with RL2 immunostaining as previously described (Liu et al., 2000).
# [6] = tested on: hippocampal neurons; test: Intracerebroventricular streptozotocin in TGFα-βgal mice: p53 staining and reporter function in brain; type: in vivo, mouse
# Protocol: A number of research groups have developed techniques of injecting streptozotocin into the cerebral ventricles (Lannert & Hoyer, 1998; Weinstock et al., 2001; Sharma & Gupta, 2002). To determine if treatment with streptozotocin causes p53 accumulation in the brain, freshly prepared streptozotocin can be injected stereotactically into the cerebral ventricles, and the brain tissues can then be stained for the presence of p53. When the control TGFα-βgal mice were injected with vehicle alone, no p53 was detected 16 hours post injection. […] STZ was also injected into TGFα-βgal mice with a homozygous knock-out of p53.
# The brains slices from similar mice receiving icv injections 36 hours prior to sacrifice were examined for TGFα-βgal reporter function.
# [7] = tested on: proteasome processing of Sp1 in nuclear extract; test: Sp1 degradation by proteasome in nuclear extract; type: biochemical; settings: activated nuclear extract
# [8] = molecular target: T2, Purified recombinant O-GlcNAc transferase (Homo sapiens, UniProt O15294); test: Inhibition of purified recombinant O-GlcNAc transferase; type: biochemical
# T2 sequence (O15294 1-1046): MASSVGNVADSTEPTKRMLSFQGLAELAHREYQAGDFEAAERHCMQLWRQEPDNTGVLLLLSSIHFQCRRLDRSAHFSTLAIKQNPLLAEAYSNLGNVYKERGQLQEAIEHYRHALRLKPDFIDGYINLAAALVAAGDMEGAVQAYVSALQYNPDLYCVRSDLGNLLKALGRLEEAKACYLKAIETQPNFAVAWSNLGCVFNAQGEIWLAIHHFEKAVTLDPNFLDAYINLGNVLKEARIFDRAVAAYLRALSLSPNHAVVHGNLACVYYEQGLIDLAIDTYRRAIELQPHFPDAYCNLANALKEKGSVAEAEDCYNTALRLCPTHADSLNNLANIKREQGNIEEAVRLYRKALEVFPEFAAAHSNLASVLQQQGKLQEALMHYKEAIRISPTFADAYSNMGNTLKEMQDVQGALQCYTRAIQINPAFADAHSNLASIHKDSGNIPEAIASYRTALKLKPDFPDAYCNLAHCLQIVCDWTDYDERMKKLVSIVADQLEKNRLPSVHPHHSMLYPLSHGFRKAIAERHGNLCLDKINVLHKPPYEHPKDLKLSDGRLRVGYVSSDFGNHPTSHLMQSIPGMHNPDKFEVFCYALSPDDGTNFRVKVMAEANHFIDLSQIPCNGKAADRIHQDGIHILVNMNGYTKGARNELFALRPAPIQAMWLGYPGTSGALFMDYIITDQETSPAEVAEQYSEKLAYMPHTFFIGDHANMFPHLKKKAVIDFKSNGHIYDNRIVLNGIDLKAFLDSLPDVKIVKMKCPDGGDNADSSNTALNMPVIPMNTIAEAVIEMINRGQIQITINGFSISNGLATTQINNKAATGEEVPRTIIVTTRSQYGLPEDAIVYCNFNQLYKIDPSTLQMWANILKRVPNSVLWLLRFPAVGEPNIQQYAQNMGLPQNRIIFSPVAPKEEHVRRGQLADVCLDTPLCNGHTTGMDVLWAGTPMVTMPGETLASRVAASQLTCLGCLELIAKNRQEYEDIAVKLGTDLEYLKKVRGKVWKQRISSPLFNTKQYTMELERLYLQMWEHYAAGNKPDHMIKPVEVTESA
# Protocol: (§1) Another chemical means of inhibiting O-GlcNAc transferase has been discovered. Another long known diabetogenic drug, alloxan (ALX) (FIG. 8 above), is a uracil analog. Injections of this drug into laboratory rats also causes a relatively specific death of the pancreatic β-cells. […] Purified recombinant O-GlcNAc transferase is inhibited half-maximally by 0.1 mM alloxan, compatible with the dose of this drug that causes diabetes. These studies indicate that an analog of UDP-GlcNAc that mimics the uracil moiety like alloxan, might be an index compound for the discovery of other UDP-GlcNAc like molecules that inhibit the O-GlcNAc transferase.
# [9] = tested on: O-GlcNAc modification of p135 in isolated β-cells; test: O-GlcNAc modification of p135 in isolated β-cells treated with alloxan; type: cell-based
# Protocol: as §1
# [10] = molecular target: T3, proteasome chymotryptic activity in NRK nuclear extracts (Rattus norvegicus, UniProt P28075); test: suc-LLVY-AMC proteasome peptidase assay in NRK nuclear extracts; type: biochemical; settings: cells treated before extract preparation; data not shown
# T3 construct: endogenous in cells; host or cells: NRK cells, nuclear extract
# T3 sequence (P28075 60-263): T1 sequence (P28075 60-263)
# Protocol: The chymotryptic activity of the proteasome itself can be measured using short synthetic peptides. The peptide, N-succinyl-Leu-Leu-Val-Tyr-7-amido-4-methylcoumarin (suc-LLVY-AMC) (Sigma), is coupled to a fluorescent indicator, and the cleavage can be monitored and quantitated by a fluorometer. […] The reaction is carried out in a 96 well plate.
# If the chymotryptic cleavage has occurred, the fluorescence can b e excited with UV light at 365 nm and detected by a CCDdigital camera coupled to a computer. Because the LLVY peptide can be cleaved by any enzyme having chymotryptic activity, cleavage is not specifically proteasome-dependent. However, if cleavage is blocked by a wide spectrum proteasome inhibitors, then it is reasonable to deduce that the detected fluorescence is proteasome-dependent.
# Proteasome peptidase activity in activated NRK nuclear extracts was examined with this assay. The activity could be inhibited by preincubating the extract with known proteasome inhibitors indicating the fluorescent signal derives from authentic proteasome activity (FIG. 2). […] When the extract was exposed briefly to GST-OGT plus UDP-GlcNAc and then the O-GlcNAc transferase was removed, the chymotryptic activity was eliminated. GST had no effect on the proteasome activity. […] The chymotryptic activity of the proteasome was stimulated by this treatment.
# [11] = tested on: Sp1 proteasome degradation; test: Sp1 depletion in cells under low glucose and cAMP accumulation; type: cell-based
# Source text: This study therefore correlated the stability of Sp1 against proteasome degradation with the level of Sp1 modification by O-GleNAc.
# The depletion of O-GlcNAc on Sp1 and other proteins appeared to have resulted both from the glucose starvation and from the cAMP.
compound,measurement,setting,value
NCCCNCCCCN(CCCN)/[N+]([O-])=N/O [Spermine NONOate],inhibition of p135 O-glycosylation,[1],do not inhibit
"CCCN(CCCN)/[N+]([O-])=N/O [NOC-15, (Z)-1-[N-(3-Ammoniopropyl)-N-(n-propyl)amino]diazen-ium-1,2-diolate]",inhibition of STZ-induced p135 O-glycosylation,"[1]; rat islets, 5 mM streptozotocin and 5 mM NOC-15",almost completely inhibiting
CN(N=O)C(=O)N[C@H]1C(O)O[C@H](CO)[C@@H](O)[C@@H]1O (mixture of isomers) [streptozotocin],β-gal reporter activity in pancreas,[2],appeared in the β-cells but not exocrine pancreas
same,p53 accumulation in islets,[3]; at 16 hours,well established
same,time of peak TUNEL positivity after administration,[3]; rat islets,22 to 24 h
same,apoptosis in islets by TUNEL assay,[3]; rats treated with STZ,causes apoptosis
same,LLVY chymotryptic activity in the brains of treated animals,"[4]; brain extract, preliminary results",marked inhibition
same,O-GlcNAc signal in hippocampal neurons (RL2),[5],marked increase
same,p53 by immunohistochemistry in neurons of the hippocampus,[6]; 16 hours post icv injection,readily detectable
same,TGFα-βgal reporter function in hippocampal neurons,"[6]; icv injection 36 hours prior to sacrifice, wildtype TGFα-βgal mice",show reporter function
same,effect on p135 O-glycosylation,"[1]; rat islets, 5 mM",stimulated
CC(=O)N[C@H]1[C@@H](OP(=O)(O)OP(=O)(O)OC[C@H]2O[C@@H](n3ccc(=O)[nH]c3=O)[C@H](O)[C@@H]2O)O[C@H](CO)[C@H](O)[C@@H]1O [UDP-GalNAc],effect on the inhibitory effect of catalytically active O-GlcNAc transferase on Sp1 processing,[7],partially blocked
O=C1NC(=O)C(=O)C(=O)N1 [alloxan],IC50,[8],100 µM
same,increase in the O-GlcNAc modification of p135 in response to glucose or glucosamine,[9],fail to display an increase
CC(=O)N[C@@H](CSC(=O)[C@]1([C@@H](O)C(C)C)NC(=O)[C@H](C)[C@@H]1O)C(=O)O [lactacystin],proteasome chymotryptic activity of extract from treated cells,[10],does not display this activity
same,loss of Sp1 under low glucose and cAMP accumulation,[11],blocked
NCCCN(CCCN)/[N+]([O-])=N/O [DPTA],inhibition of p135 O-glycosylation,[1],do not inhibit
CC(C)C[C@@H](C=O)NC(=O)[C@H](CC(C)C)NC(=O)[C@H](CC(C)C)NC(=O)OCc1ccccc1 [MG132] (Cbz-Leu-Leu-Leu-aldehyde),loss of Sp1 under low glucose and cAMP accumulation,[11],blocked
CCCC[C@@H](C=O)NC(=O)[C@H](CC(C)C)NC(=O)[C@H](CC(C)C)NC(C)=O [LLnL] (Ac-Leu-Leu-[Nle]-aldehyde),loss of Sp1 under low glucose and cAMP accumulation,[11],blocked
N[C@H]1C(O)O[C@H](CO)[C@@H](O)[C@@H]1O (stereo partly shown) [glucosamine],proteasome chymotryptic activity of extract from treated cells,[10],does not display this activity
same,Sp1 degradation after glucose starvation and forskolin,[11]; cells provided glucosamine,degradation decreased
CC(C)[C@H](O)[C@@]12NC(=O)[C@H](C)[C@@H]1OC2=O [β-lactone],suc-LLVY-AMC fluorescence in brain extract,[4]; inhibitor added to extract,inhibited
